For series [1] the following is noted: cited from earlier work.
Series [2] can be described thus: Chromium picolinate vs placebo in obese subjects genotyped for DRD2 (scale weight, DEXA body fat). The series is classed as in vivo, human. As to conditions: for change in fat weight, body weight, percent change in weight, body weight change in kg: A2/A2 carriers; for any parameter of weight change: subjects possessing a DRD2 A1 allele (A1/A1 or A1/A2). The method, then:
A Case Study: Chromium and Dopamine Genes. While there is still controversy regarding the effects of chromium salts (picolinate and nicotinate) on body composition and weight loss in general, recent work seems to support the positive change in body composition in humans. The inventors embarked on a study with chromium picolinate to test out the principles of nutrigenomics. In this study they genotyped obese subjects for the dopamine D2 receptors gene (DRD2). The subjects were assessed for scale weight and for percent body fat. The subjects were divided into matched placebo and chromium picolinate (CrP) groups. […] Moreover, the inventors propose for the first time that mixed effects now observed with CrP administration in terms of body composition, may be resolved by typing the patient via DRD2 genotyping prior to treatment with chromium salts.
To reiterate, Blum and associates found similar evidence with chromium picolinate, for the role of genes in physiological response with nutritional supplements. While there still is controversy regarding the effects of chromium salts (picolinate and nicotinate) on body composition and weight loss in general, recent unpublished work seems to support the positive change in body composition in humans. In consideration of the above study, Chen and Blum and others decided to genotype 130 overweight subjects for the dopamine D2 receptor gene. The subjects were assessed for scale weight and for percent body fat using dual energy X-ray absorptionmetry (DEXA R). The subjects were divided into matched placebo and chromium picolinate groups (400 μg. per day). The sample was separated into two independent groups; those with either an A1/A1 or A1/A2 allele and those with only the A2/A2 pattern. […] Moreover, we propose for the first time that mixed effects now observed with chromium picolinate in terms of body composition, may be resolved by typing the patient via dopamine D2 receptor genotyping prior to treatment with not only chromium salts, but with other nutritional supplements as well.
In terms of weight loss ingredients one nutrient Chromium Picolinate, one of the most widely used ingredient in the weight management field, pharmacogenomically responds differentially based on the DRD2genotype. Dr. Blum is current in revision on a publication detailing these findings. Here are some details on the abstract: • Thomas J H Chen, Kenneth Blum, * Gilbert Kaats, E. R. Braverman. Arthur Eisenberg, M. Sherman. K. Davis, D E Comings, R. Wood, D. Pullin. CHROMIUM PICOLINATE A PUTATIVE ANTI-OBESITY NUTRIENT INDUCES CHANGES IN BODY COMPOSITION AS A FUNCTION OF THE Taq1 DOPAMINE D2 RECEPTOR POLYMORPHISMS. International J. Of Eating Disorders (in revision). • Objective: There is still controversy regarding the effects of chromium salts (picolinate and nicotinate) on body composition and weight loss in humans. Thus, we decided to test the hypothesis that typing the obese patients by genotyping the DRD2 gene prior to treatment with Chromium Picolinate (CrP) would result in a differential treatment outcome. • Methods: We genotyped obese subjects for the dopamine D2 receptors gene (DRD2) utilizing standard PCR techniques. The subjects were assessed for scale weight and for percent body fat using dual energy X-ray absorptiometry (DEXAR). The subjects were divided into matched placebo and CrP groups (400 ug. per day) accordingly. The sample was separated into two independent groups. Those with either an A1/A1 or A1/A2 allele or those with only the A2/A2 allelic pattern.

The conditions of series [3]: after six months; cited from earlier work.
For series [4] the following is noted: 400 mcg, cited from earlier work.
The conditions of series [5]: 200 and 400 mcg, cited from earlier work.
In another series the test system is lipolysis. As to conditions: p <0.01; cited from earlier work.
For series [6] the following is noted: nucleus accumbens microinjections; cited from earlier work.
The conditions of series [7]: in vivo; cited from earlier work.
The conditions of series [8]: 2 weeks; cited from earlier work.
The next series addresses T1, ATP-citrate lyase (Homo sapiens, UniProt P53396).
T1 sequence (P53396 1-1101): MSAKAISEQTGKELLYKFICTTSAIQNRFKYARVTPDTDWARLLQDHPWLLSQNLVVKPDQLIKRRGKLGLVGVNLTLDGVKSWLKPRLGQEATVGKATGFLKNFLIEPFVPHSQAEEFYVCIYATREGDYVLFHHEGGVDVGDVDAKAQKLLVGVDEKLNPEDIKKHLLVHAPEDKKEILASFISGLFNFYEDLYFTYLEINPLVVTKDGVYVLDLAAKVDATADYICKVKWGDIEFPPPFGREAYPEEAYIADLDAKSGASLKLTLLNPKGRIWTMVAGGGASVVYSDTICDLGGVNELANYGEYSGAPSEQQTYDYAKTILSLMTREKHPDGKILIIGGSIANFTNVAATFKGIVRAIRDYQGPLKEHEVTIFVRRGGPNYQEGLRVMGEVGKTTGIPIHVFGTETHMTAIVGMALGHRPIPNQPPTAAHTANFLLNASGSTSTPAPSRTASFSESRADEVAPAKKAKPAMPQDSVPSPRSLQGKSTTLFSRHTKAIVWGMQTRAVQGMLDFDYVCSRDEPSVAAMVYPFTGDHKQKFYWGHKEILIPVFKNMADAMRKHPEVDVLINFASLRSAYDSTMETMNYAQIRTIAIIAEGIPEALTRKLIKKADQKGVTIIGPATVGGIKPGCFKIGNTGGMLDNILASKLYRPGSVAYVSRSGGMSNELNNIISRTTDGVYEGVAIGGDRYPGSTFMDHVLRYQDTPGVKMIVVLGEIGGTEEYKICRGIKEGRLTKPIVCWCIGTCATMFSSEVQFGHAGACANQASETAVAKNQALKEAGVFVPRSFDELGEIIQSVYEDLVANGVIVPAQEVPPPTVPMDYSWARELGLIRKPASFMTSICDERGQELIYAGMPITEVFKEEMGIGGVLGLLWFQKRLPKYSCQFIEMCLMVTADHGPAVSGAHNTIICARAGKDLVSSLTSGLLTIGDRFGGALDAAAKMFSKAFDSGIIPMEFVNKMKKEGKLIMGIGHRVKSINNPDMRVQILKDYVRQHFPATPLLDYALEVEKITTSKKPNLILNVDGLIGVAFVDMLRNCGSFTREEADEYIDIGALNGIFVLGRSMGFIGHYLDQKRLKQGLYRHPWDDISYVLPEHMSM
To be noted: cited from earlier work.

For series [9] the following is noted: 2 g of HCA; fasting and fed subjects; cited from earlier work.
For series [10] the following is noted: 3.0 g/day for 3 days; fasting state, rest or moderate exercise; cited from earlier work.
For series [11] the following is noted: 1320 mg/day, eight weeks, 1200 kcal/day; cited from earlier work.
Series [12] in a line: HCA 440 mg t.i.d. eight weeks (Thom). Also noted: species or system human. As to conditions: in vivo. The method, then:
The Thom study indicates a dosage level of 440 mg of HCA (as opposed to GcE) t.i.d. (1320 mg/day) for eight weeks. […] The mean “weight loss” in the HCA group was 6.4 kg, 1.68 times greater than placebo. […] The GcE was taken in conjunction with 1200 mg L-Carnitine and 600 mcg chromium (from picolinate) and compared to placebo in 186 subjects (200 began the study) for 4 weeks. All participants were supposed to engage in an exercise regimen calibrated to personal needs. Loss of body fat in the treatment group averaged 1.29 kg compared to 0.64 kg in the placebo ([…]. The Girola study investigated the effects of chitosan, combined with a low amount of GcE, making a comparative evaluation impossible. In fact, variables in the studies noted, and others not mentioned, make conclusions about the efficacy of GcE for “weight loss” extremely difficult.

For series [13] the following is noted: injections; cited from earlier work.
A further series deals with opioid receptor. As to conditions: intra-VTA infusions; cited from earlier work.
For series [14] the following is noted: cited from earlier work. This is another data set of the same source.
For series [15] the following is noted: people with RA; cited from earlier work.

Where two headings read alike, the source gives them in different places.

For the compound Chromium Picolinate, in series [1] (exercise training combined with supplementation), the “insulin response to an oral glucose load” value was “lowered insulin response to an oral glucose load”. Further, the body weight entry in series [1] (supplementation alone) is listed as “CrP supplementation resulted in significant weight gain,”. The “change in fat weight, body weight, percent change in weight, body weight change in kg” value in series [2] was “changes in kgms were all significant in A2/A2 group,”; in series [2] (listed as CrP) it was “significant in A2/A2 group and non”; in series [2] (listed as chromium picolinate), “all significant”. In addition, the “any parameter of weight change” value in series [2] was “no significance was found”; in series [2] (listed as CRP), “do not respond”; in series [2] (listed as CrP) it was “no significance was found”. In addition, the lean body mass result in [3] is recorded as “After six months the CrP group had an increase in lean”. Also, in [4] (p < 0.001), the “reduction in body fat vs placebo” value is “(p < 0.001) and body fat (p < 0.004), had a greater”. The “weight lost vs placebo” value in series [4] (p < 0.001) is 400 mcg CrP group lost significantly more weight. Also, the body composition result in series [4] (p < 0.004) is recorded as “reduction in body fat (p < 0.001), significantly improve”. The “changes in Body Mass composition indicies compared with placebo” value was 200 and 400 mcg of CrP brought about significant in series [5]; “body composition improvement, loss of body fat, gain in nonfat mass” in [5] (listed as chromium picolinate).
`C[C@]12CCC(=O)C=C1CC[C@@H]1[C@@H]2[C@@H](O)C[C@@]2(C)[C@H]1CC[C@]2(O)C(=O)CO` [cortisol]: the “basal rate of lipolysis” value with lipolysis was “significantly reduced”.
Regarding `C[C@H](NC(=O)[C@@H](CC(=O)NO)Cc1ccccc1)C(=O)O` [kelatrophan], the intracranial self-stimulation result in series [6] was “reduced”.
With `O=C(O)CC(O)(C(=O)O)C(O)C(=O)O` (stereo not drawn) [HCA, (−)—Hydroxycitric acid], in [7], the satiety result is listed as “no observable effects”. In addition, the “satiety and energy intake compared to placebo” value in [8] is recorded as “did not increase satiety or effect energy intake”. In addition, the “inhibition of ATP-citrate lyase” value was “competitively inhibit” on ATP-citrate lyase and “competitive inhibitor” at ATP-citrate lyase (listed as FCA). Moreover, in [9], the “time to peak plasma levels” value was “approximately 2 hours”. In series [10], the “short-term rate of fat oxidation” value is listed as “did not alter”. In addition, the mean weight loss in [11] is reported as 6.4 kg. Besides, the “weight loss relative to placebo” value in series [12] is 1.68 times greater than placebo.
Turning to `NC(Cc1ccc(Cl)cc1)C(=O)O` (centres unmarked) [Para-Chlora-Phenylalanine (PCA), Para-Chlora-Phenylalanine], in series [13], the induction of stress result is “attenuated”.
Take `O=C1CC[C@@]2(O)[C@H]3Cc4ccc(O)c5c4[C@@]2(CCN3CC2CC2)[C@H]1O5` [Naltrexone]: the “stress-induced activation of dopamine metabolism in the NAcc and prefrontal cortex” value with opioid receptor is recorded as “prevent”. Further, the body weight entry in series [14] (anorexic patients) is “weight gain”. In series [14] (bulimics), the binge-eating result is “some reduction”.
`CCCCC/C=C\C/C=C\C/C=C\CCCCC(=O)O` [GLA, GAMMA-LINOLENIC ACID]: in [15], the RA symptoms result is “significant improvements”.

(Values after US20060062859A1, “Composition and method to optimize and customize nutritional supplement formulations by measuring genetic and metabolomic contributing factors to disease diagnosis, stratification, prognosis, metabolism, and therapeutic outcomes” (priority 2004, published 2006).)
